Drawing on ChEMBL document CHEMBL4813927, “Discovery of Venturicidin Congeners and Identification of the Biosynthetic Gene Cluster from Streptomyces sp. NRRL S-4” (J Nat Prod, 2021), this text covers IC50 for five compounds.

Where a name gives a salt, the structure may show the parent alone.

In one experiment the test system is MV4-11. Description: Cytotoxicity against human MV4-11 cells assessed as inhibition of cell growth measured after 72 hrs by Celltiter-Glo assay. The format is functional, cell-based. As to conditions: MV4-11, 72 h.
The next experiment concerns K562. Nature of the experiment: Cytotoxicity against human K562 cells assessed as inhibition of cell growth measured after 72 hrs by Celltiter-Glo assay. The format is functional, cell-based. As to conditions: K562, 72 h. In general terms: Cellular ATP, detected with luciferase, serves as a proxy for viable cell number.
Another experiment concerns MDA-MB-468. Nature of the experiment: Cytotoxicity against human MDA-MB-468 cells assessed as inhibition of cell growth measured after 72 hrs by Celltiter-Glo assay. It counts as functional, cell-based. As to conditions: MDA-MB-468, 72 h.
For another experiment, the system named is Hep 3B2. Description: Cytotoxicity against human Hep3B cells assessed as inhibition of cell growth measured after 72 hrs by Celltiter-Glo assay. The format is functional, cell-based.
Experiment [1] deals with T1, Receptor-type tyrosine-protein kinase FLT3 (Homo sapiens, UniProt P36888).
T1 sequence (P36888 whole entry): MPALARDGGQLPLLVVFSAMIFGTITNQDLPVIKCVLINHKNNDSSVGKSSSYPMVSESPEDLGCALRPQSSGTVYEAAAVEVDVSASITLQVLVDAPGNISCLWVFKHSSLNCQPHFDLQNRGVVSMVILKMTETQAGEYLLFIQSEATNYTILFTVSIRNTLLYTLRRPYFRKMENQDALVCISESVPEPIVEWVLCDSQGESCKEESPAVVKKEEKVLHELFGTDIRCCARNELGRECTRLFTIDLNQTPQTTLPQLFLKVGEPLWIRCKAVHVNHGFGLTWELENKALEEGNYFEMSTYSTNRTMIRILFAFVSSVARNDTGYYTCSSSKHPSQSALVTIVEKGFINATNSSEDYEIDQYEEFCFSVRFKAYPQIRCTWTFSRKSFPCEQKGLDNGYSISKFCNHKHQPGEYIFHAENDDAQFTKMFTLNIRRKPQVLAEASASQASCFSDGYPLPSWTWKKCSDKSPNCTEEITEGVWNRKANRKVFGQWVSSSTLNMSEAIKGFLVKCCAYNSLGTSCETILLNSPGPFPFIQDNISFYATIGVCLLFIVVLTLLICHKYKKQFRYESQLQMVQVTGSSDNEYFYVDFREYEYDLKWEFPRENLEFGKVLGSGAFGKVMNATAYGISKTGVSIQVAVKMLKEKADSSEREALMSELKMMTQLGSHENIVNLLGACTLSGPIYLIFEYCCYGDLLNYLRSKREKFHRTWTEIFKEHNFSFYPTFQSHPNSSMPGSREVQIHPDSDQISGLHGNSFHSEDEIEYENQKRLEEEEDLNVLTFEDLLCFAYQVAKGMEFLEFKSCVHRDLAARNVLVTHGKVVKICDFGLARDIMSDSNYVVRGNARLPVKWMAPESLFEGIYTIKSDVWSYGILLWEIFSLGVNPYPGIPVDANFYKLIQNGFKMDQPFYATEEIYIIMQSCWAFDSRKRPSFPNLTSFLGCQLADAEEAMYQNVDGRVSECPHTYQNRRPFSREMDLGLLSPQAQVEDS
Nature of the experiment: Inhibition of FLT3 (unknown origin) using MBP as substrate incubated for 40 mins in presence of ATP by ADP-Glo assay. On the technique in general: In ADP-Glo the light output rises with the ADP produced.

For the next experiment, the system named is B16. Description: Cytotoxicity against mouse B16 cells assessed as inhibition of cell growth measured after 72 hrs by Celltiter-Glo assay. It counts as functional, cell-based. As to conditions: B16, 72 h.

By IC50 is commonly meant the concentration that inhibits the measured activity by half. `COc1cccc2c1C(=O)c1c(O)c3c(c(O)c1C2=O)C[C@@](O)(C(=O)CO)C[C@@H]3O[C@H]1C[C@H](N)[C@H](O)[C@H](C)O1` [DOXORUBICIN HYDROCHLORIDE]: the IC50 in the experiment with MV4-11 came to 0.14 µM.

On to `CCC(=O)[C@@H](C)[C@@H](O)[C@H](C)C[C@@H](C)[C@H]1OC(=O)C[C@@]2(O)CC[C@H](C)[C@H](O2)/C(C)=C/CCC[C@@H](O[C@H]2C[C@@H](OC(N)=O)[C@H](O)[C@@H](C)O2)/C=C/[C@H](C)C[C@H]1C`, for which the IC50 in the experiment on MV4-11 worked out at 0.94 µM.

In the case of `CCC(=O)[C@@H](C)[C@@H](O)[C@H](C)C[C@@H](C)[C@H]1OC(=O)C[C@@]2(OC)CC=C(C)[C@H](O2)/C(C)=C/CCC[C@@H](O[C@H]2C[C@@H](OC(N)=O)[C@H](O)[C@@H](C)O2)/C=C/[C@H](C)C[C@H]1C`, the IC50 in the experiment with MV4-11 is 4.1 µM.

For the compound `CCC(=O)[C@@H](C)[C@H](O)[C@H](C)C[C@@H](C)[C@H]1OC(=O)C[C@@]2(O)CC=C(C)[C@H](O2)/C(C)=C/CCC[C@@H](O[C@H]2C[C@@H](OC(N)=O)[C@H](O)[C@@H](C)O2)/C=C/[C@H](C)C[C@H]1C`, the IC50 in the experiment with MV4-11 was 60 µM.

Turning to `CCC(=O)[C@@H](C)[C@@H](O)[C@H](C)C[C@@H](C)[C@H]1OC(=O)C[C@@]2(O)CC=C(C)[C@H](O2)/C(C)=C/CCC[C@@H](O[C@H]2C[C@@H](OC(N)=O)[C@H](O)[C@@H](C)O2)/C=C/[C@H](C)C[C@H]1C`, the IC50 in the experiment with MV4-11 is 0.09 µM; in the experiment on K562, 5.8 µM; in the experiment on MDA-MB-468 it was 8.3 µM; in the experiment on Hep 3B2 it was 15 µM; in experiment [1] it was 64 µM; with B16, 12 µM.
